As usually defined, the EC50 is the midpoint of the concentration-response curve. A higher EC50 goes with a need for much substance.

Non-standard residues stand in square brackets, D forms with d. Residues, ends and D or L forms follow the SMILES beside them. ξ: configuration not given here. *: point of attachment. ξF = NC(Cc1ccccc1)C(=O)O; Cbz = O=C(OCc1ccccc1)*

Results on 44 compounds are retold here after BindingDB's records for doi:10.7270/Q2Q52N1X (Vanderbilt Screening Center for GPCRs, Ion Channels and …, 2009).

For one assay, the target named is T1, Solute carrier family 12 member 5 (Homo sapiens, UniProt Q9H2X9).
T1 sequence (Q9H2X9 whole entry): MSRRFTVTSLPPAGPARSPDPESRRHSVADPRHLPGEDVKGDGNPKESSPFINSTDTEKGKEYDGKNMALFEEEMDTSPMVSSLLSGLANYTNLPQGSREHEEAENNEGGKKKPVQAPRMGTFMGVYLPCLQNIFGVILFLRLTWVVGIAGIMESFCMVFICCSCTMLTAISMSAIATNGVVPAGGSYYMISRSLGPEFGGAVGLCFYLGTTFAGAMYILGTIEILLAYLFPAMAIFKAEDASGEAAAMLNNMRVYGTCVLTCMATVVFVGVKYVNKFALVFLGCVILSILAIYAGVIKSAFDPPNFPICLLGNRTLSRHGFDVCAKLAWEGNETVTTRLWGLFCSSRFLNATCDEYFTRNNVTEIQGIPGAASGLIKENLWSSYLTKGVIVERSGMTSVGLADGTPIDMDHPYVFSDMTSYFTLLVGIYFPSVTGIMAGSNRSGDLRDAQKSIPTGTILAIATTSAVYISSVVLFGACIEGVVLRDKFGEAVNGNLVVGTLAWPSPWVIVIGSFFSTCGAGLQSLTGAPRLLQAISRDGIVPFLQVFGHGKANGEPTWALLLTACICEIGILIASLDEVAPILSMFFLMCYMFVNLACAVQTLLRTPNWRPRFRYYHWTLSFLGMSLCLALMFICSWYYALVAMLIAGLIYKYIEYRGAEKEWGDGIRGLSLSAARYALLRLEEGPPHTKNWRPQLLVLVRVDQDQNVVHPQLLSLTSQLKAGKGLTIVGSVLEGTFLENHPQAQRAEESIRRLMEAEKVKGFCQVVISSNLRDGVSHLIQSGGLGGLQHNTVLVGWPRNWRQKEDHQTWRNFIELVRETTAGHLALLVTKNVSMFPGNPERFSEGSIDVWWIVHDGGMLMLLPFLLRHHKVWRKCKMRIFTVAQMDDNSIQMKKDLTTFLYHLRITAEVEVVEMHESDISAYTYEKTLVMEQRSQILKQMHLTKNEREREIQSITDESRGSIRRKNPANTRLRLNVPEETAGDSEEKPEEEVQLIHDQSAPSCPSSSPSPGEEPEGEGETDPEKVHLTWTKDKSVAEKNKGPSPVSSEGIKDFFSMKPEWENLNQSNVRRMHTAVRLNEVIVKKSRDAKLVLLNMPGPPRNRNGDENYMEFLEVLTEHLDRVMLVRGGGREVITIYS
The assay is described as follows: concentration-response of KCC2 transport modulators – cell-based, HEK293 KCC2, FluoZin-2 fluorescence, dose response (AID 1736).
Conditions: not given
Turning to `O=C(NCc1cccs1)c1nc2c(nnn2Cc2ccc(F)cc2)c(=O)[nH]1` [MLS000074753], the 50% effective concentration (EC50) was 9.9 µM. This lies in the single-digit micromolar range.

`COc1cccc(Nc2nnc(S)s2)c1` [5-(3-methoxyanilino)-3H-1,3,4-thiadiazole-2-thione] gave an EC50 of 2.8 µM.

For `O=C(NC(=S)Nc1nc(-c2cccc([N+](=O)[O-])c2)cs1)c1cc(Cl)ccc1Cl` [2,5-bis(chloranyl)-N-[[4-(3-nitrophenyl)-1,3-thiazol-2-yl]carbamothioyl]benzamide], the response was half-maximal at 34.7 µM (EC50).

As to `O=S(=O)(Nc1nc2ccccc2nc1N1CCN(c2ccccn2)CC1)c1ccc(Cl)cc1` [4-chloranyl-N-[3-(4-pyridin-2-ylpiperazin-1-yl)quinoxalin-2-yl]benzenesulfonamide], the midpoint of the response, the EC50, lay at 9.37 µM.

In the case of `O=C(C=Cc1ccccc1)CC(=O)c1ccccc1O` [MLS000627068], the EC50 is 12.4 µM. This EC50 and that of the compound before are within 1.5-fold of each other.

Regarding `O=C(NCCc1c[nH]c2ccccc12)c1cc(S(=O)(=O)N2CCCCC2)ccc1N1CCOCC1` [N-[2-(1H-indol-3-yl)ethyl]-2-morpholin-4-yl-5-piperidin-1-ylsulfonylbenzamide], a half-maximal response (EC50) required 20.1 µM.

Take `CCOc1ccc(C(CC(=O)O)NC(=O)C(Sc2ccccc2)c2ccccc2)cc1` (centres undefined) [3-(4-ethoxyphenyl)-3-[(2-phenyl-2-phenylsulfanyl-ethanoyl)amino]propanoic acid]: the EC50 came out at 13.6 µM. The EC50 values of the last two compounds are within 1.5-fold of each other.

Compound `O=C(Cn1nc(-c2ccccc2)ccc1=O)NCc1ccc2c(c1)OCO2` [2-(6-keto-3-phenyl-pyridazin-1-yl)-N-piperonyl-acetamide] returned an EC50 of 1.33 µM.

`O=C(CSc1ncccc1-c1nc2ccccc2[nH]1)N1CCN(c2ccccc2F)CC1` [MLS000033700] yielded an EC50 of 9.45 µM.

As to `COc1cc(C=NNC(=O)CN(Cc2ccccc2)S(=O)(=O)c2ccc3c(c2)OCCO3)ccc1O` [2,3-Dihydro-benzo[1,4]dioxine-6-sulfonic acid benzyl-(4-hydroxy-3-methoxy-benzylidene-hydrazinocarbonylmethyl)-amide], the EC50 is 3.15 µM.

Take `CCOC(=O)c1sc(Nc2nc3c(OC)cccc3s2)nc1C` [SMR000027213]: the half-maximal effective concentration (EC50) turned out to be 155 µM.

As for `O=C(CSc1ccccc1C(=O)NCc1ccccc1)NC12CC3CC(CC(C3)C1)C2`, the EC50 was 5.21 µM.

In turn, `Cc1cccc(Nc2nnc(SCC(=O)c3ccc(Br)s3)s2)c1C` [1-(5-bromanylthiophen-2-yl)-2-[[5-[(2,3-dimethylphenyl)amino]-1,3,4-thiadiazol-2-yl]sulfanyl]ethanone] registered an EC50 of 1.49 µM.

Regarding `O=C(O)CCc1cc(I)c(Oc2ccc(O)c(I)c2)c(I)c1` [3-[4-(4-hydroxy-3-iodophenoxy)-3,5-diiodophenyl]propanoic acid], the half-maximal effective concentration (EC50) worked out at 11.1 µM.

`Cc1[nH]c2ccccc2c1Cc1nnc(S)o1` had an EC50 of 1.59 µM. This EC50 lies about 7-fold lower than the previous one.

`O=C(NNc1nc(-c2ccc(F)cc2)cs1)c1ccccc1` [MLS000763429]: the EC50 is 0.806 µM.

For the compound `O=c1[nH]c2c(s1)C(c1ccccc1)c1c(c(O)n(-c3ccccc3)c1O)S2` (centres undefined), the EC50 was found to be 0.102 µM.

Compound `Cc1nn(-c2ccc(F)cc2)c(C)c1NS(=O)(=O)c1ccc(Cl)cc1` [4-chloranyl-N-[1-(4-fluorophenyl)-3,5-dimethyl-pyrazol-4-yl]benzenesulfonamide] gave an EC50 of 112 µM.

`c1ccc(-c2csc(N=NCc3cccnc3)n2)cc1` [(4-phenylthiazol-2-yl)-(3-pyridylmethyleneamino)amine] displayed an EC50 of 35.8 µM.

The compound `CCOc1ccc2nc(Sc3cc(O)n(-c4cccc(OC)c4)c3O)sc2c1` [3-(6-Ethoxy-benzothiazol-2-ylsulfanyl)-1-(3-methoxy-phenyl)-pyrrolidine-2,5-dione] gave an EC50 of 9.38 µM.

`CCN(CC)c1ccc2c(C)c(-c3ccc(N)cc3)c(=O)oc2c1` [3-(4-aminophenyl)-7-(diethylamino)-4-methyl-1-benzopyran-2-one] came in with an EC50 of 1.08 µM.

`O=C(CSc1ccc(-c2ccccc2)nn1)N1CCCc2ccccc21` [1-(3,4-dihydro-2H-quinolin-1-yl)-2-(6-phenylpyridazin-3-yl)sulfanyl-ethanone]: the midpoint of the response, the EC50, lay at 10.5 µM.

For the compound `CN(Cc1ccccc1)c1nc2nonc2nc1N1CCCC(CN2CCCC2=O)C1` (centres undefined) [1-[(1-{6-[benzyl(methyl)amino][1,2,5]oxadiazolo[3,4-b]pyrazin-5-yl}piperidin-3-yl)methyl]pyrrolidin-2-one], a half-maximal effect (EC50) was put at 9050 µM. Compared with the last compound, the EC50 is about 860-fold higher.

Turning to `O=C(Cn1cnc2c(nnn2Cc2ccc(F)cc2)c1=O)N1CCN(c2ccccc2)CC1` [3-(4-fluorobenzyl)-6-[2-keto-2-(4-phenylpiperazino)ethyl]triazolo[4,5-d]pyrimidin-7-one], the half-maximal effective concentration (EC50) stood at 8.12 µM.

In the case of `O=C(Cn1nc2ccccc2n1)NN=Cc1cc(Cl)cc([N+](=O)[O-])c1O` [2-(2H-1,2,3-benzotriazol-2-yl)-N'-{5-chloro-2-hydroxy-3-nitrobenzylidene}acetohydrazide], it took 28.4 µM to reach a half-maximal effect (EC50).

`CCOC(=O)CNC(=O)C(Cc1ccccc1)NC(=O)OCc1ccccc1` (centres undefined) [2-[[1-oxo-3-phenyl-2-(phenylmethoxycarbonylamino)propyl]amino]acetic acid ethyl ester] (Cbz-[ξF]-Gly-OEt) displayed an EC50 of 5.03 µM.

As to `C=CCNc1oc(Cc2cccc3ccccc23)nc1C#N` [2-(1-naphthalenylmethyl)-5-(prop-2-enylamino)-4-oxazolecarbonitrile], the EC50 stood at 12.1 µM.

For `O=C(C[n+]1ccccc1)c1ccc(-c2ccccc2)cc1` [1-(4-phenylphenyl)-2-(1-pyridin-1-iumyl)ethanone;bromide], a half-maximal response (EC50) required 43.6 µM.

In turn, `Cc1ccc(-c2csc(NC(=O)CCNC(=O)c3ccccc3Cl)n2)cc1` [2-chloranyl-N-[3-[[4-(4-methylphenyl)-1,3-thiazol-2-yl]amino]-3-oxidanylidene-propyl]benzamide] came in with an EC50 of 2.16 µM.

Compound `c1ccc(-c2csc(N=NCc3ccco3)n2)cc1` [(2-furfurylideneamino)-(4-phenylthiazol-2-yl)amine] displayed a 50% effective concentration (EC50) of 65 µM.

For the compound `CCCC1=NN2C(=N)/C(=C\c3cc(C)n(-c4cc(C)cc(C)c4)c3C)C(=O)N=C2S1` [MLS000588586], it took 7.66 µM to reach a half-maximal effect (EC50).

`O=S1(=O)N=C(N2CCN(Cc3ccccc3)CC2)c2ccccc21` [3-(4-Benzyl-piperazin-1-yl)-benzo[d]isothiazole 1,1-dioxide] showed an EC50 of 3.19 µM.

The compound `Cc1nonc1NC(=O)CSc1ccc(-c2ccccc2)nn1` [MLS000074514] returned an EC50 of 1.13 µM.

In turn, `O=C(CNC(=O)/C(=C/c1ccccc1)NC(=O)c1ccc(Br)cc1)OCc1ccccc1` [(phenylmethyl) 2-[[(Z)-2-[(4-bromophenyl)carbonylamino]-3-phenyl-prop-2-enoyl]amino]ethanoate] came in with an EC50 of 0.678 µM. Compared with the last compound, the EC50 is about 1.7-fold lower.

`CC(C)CCNC(=O)COC(=O)/C=C/c1ccc2ccccc2n1` [(E)-3-(2-quinolinyl)-2-propenoic acid [2-(3-methylbutylamino)-2-oxoethyl] ester] displayed a half-maximal effective concentration (EC50) of 2.75 µM.

Turning to `Cn1c(C(=O)NCCCN2CCN(c3ccccc3F)CC2)cc2c(=O)n(C)c3ccccc3c21` [MLS000118127], the response was half-maximal at 7.12 µM (EC50).

For the compound `Cc1ccc(Cn2c(SCC(=O)Nc3cc(C)on3)nc3ccccc3c2=O)cc1` [2-[[4-keto-3-(4-methylbenzyl)quinazolin-2-yl]thio]-N-(5-methylisoxazol-3-yl)acetamide], the EC50 worked out at 82 µM.

Regarding `S=C(NCCc1ccccc1)NN=Cc1cccc(Cl)c1Cl` [1-[(2,3-dichlorobenzylidene)amino]-3-phenethyl-thiourea], the concentration for a half-maximal effect (EC50) amounted to 7.78 µM.

The assay is the same for the next values; noted with them: inactive by the depositor's call.
`O=C(Cn1nnc(-c2ccccc2-n2cnnn2)n1)NCc1ccccc1` [MLS000073516] showed an EC50 of 24 µM.

Regarding `O=c1cc(CSc2nnnn2-c2ccccc2)nc2scc(-c3ccccc3)n12` [3-phenyl-7-[(1-phenyl-1,2,3,4-tetrazol-5-yl)sulfanylmethyl]-[1,3]thiazolo[3,2-a]pyrimidin-5-one], the concentration giving a half-maximal response (EC50) came to 4610 µM.

In the case of `CCC(C)(C)n1nnnc1C(c1ccc(O)c(OC)c1)N1CCN(c2nc3ccccc3s2)CC1` (centres undefined) [4-[(1-tert-amyltetrazol-5-yl)-[4-(1,3-benzothiazol-2-yl)piperazino]methyl]-2-methoxy-phenol], a half-maximal response (EC50) required 9.05 µM.

Compound `CCCCC(c1nnnn1Cc1ccco1)N1CCN(c2nc3ccccc3s2)CC1` (centres undefined) [2-[4-[1-[1-(2-furanylmethyl)-5-tetrazolyl]pentyl]-1-piperazinyl]-1,3-benzothiazole] showed an EC50 of 9.22 µM.

Compound `COc1ccc(N(CC(=O)Nc2ccc(C)c(C)c2)S(=O)(=O)c2c(C)n[nH]c2C)cc1` [SMR000027403] came in with an EC50 of 35.1 µM.

As for `CC(C)c1onc(C(=O)NCCc2ccccc2)c1[N+](=O)[O-]` [4-nitro-N-(2-phenylethyl)-5-propan-2-yl-1,2-oxazole-3-carboxamide], a half-maximal effect (EC50) was put at 20.6 µM. This EC50 lies about 1.7-fold lower than the previous one.
